Data set [1] deals with diabetic neuropathy and fibromyalgia. As to the kind of experiment: Pain relief in patients with diabetic neuropathy and fibromyalgia. It is filed as in vivo, human. To be noted: 400 mg of tramadol per day. The text has this: In certain preferred embodiments, the invention is directed in part to synergistic combinations of dextromethorphan or other NMDA receptor antagonist in an amount sufficient to render a therapeutic effect together with an anticonvulsant and/or a tricyclic anti-depressant and tramadol or its analog, such that an analgesic effect is attained which is at least about 5 (and preferably at least about 10) times greater than that obtained with the dose of tramadol or its analog alone. This is exemplified by the apparent fact that patients with diabetic neuropathy and fibromyalgia, who could not get even 30-40% reduction in pain even with the administration of 400 mg of tramadol per day, can have shown 90-100% pain relief with the inventive composition containing 35 mg of tramadol, 45 mg of dextromethorphan and 90 mg of gabapentin over a period of 12-16 hours.
(§1) The synergistic effect of the combination can further be appreciated using Table 1.

The conditions of data set [2]: cited from earlier work.
Data set [3] relates to pain. To be noted: single oral dose of tramadol 100 mg; cited from earlier work.
In another data set the target is μ-opiate receptor (Homo sapiens, UniProt P35372). To be noted: cited from earlier work.
Sequence of μ-opiate receptor (P35372 whole entry, species assumed): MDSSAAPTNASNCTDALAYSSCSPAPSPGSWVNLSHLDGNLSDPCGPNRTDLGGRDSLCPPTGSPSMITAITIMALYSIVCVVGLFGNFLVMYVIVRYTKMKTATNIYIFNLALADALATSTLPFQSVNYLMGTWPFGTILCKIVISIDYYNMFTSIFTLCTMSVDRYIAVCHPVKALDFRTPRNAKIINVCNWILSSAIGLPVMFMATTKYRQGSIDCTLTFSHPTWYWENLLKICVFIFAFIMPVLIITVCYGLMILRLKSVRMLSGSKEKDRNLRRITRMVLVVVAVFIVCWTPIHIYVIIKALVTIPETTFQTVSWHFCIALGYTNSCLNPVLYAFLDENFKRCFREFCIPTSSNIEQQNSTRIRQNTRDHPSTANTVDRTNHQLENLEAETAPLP
Data set [4] concerns α2δ subunit of voltage-gated calcium channels. To be noted: cited from earlier work.
Data set [5] has as its system neuropathy-induced allodynia. To be noted: in vivo; cited from earlier work.
The subject of data set [6] is Diabetic Neuropathy. To be noted: literature values; Tramadol Hydrochloride 400 mg/day (Sindrup 1999), Gabapentin 3600 mg/day (Marchettini 2004); cited from earlier work.
Data set [7] has as its system Fibromyalgia. To be noted: literature values; Tramadol Hydrochloride 400 mg/day (Biasi 1998; Russell 2000), Gabapentin 3600 mg/day (Lesley 2007); cited from earlier work.
For data set [8] the following is noted: patients with epilepsy; cited from earlier work.
In data set [9] the test system is Diabetic Neuropathy. As to the kind of experiment: Pain relief in diabetic neuropathy patients (Table 1). It is filed as in vivo, human. To be noted: individual components at the doses present in TLI-0326 (40.4, 100, 200 mg/day); would have very little effect.
Text: as §1

The test system of data set [10] is postherpetic neuralgia. To be noted: cited from earlier work.
In data set [11] the test system is Fibromyalgia. The experiment in a line: Pain relief in fibromyalgia patients (Table 1). To be noted: individual components at the doses present in TLI-0326 (40.4, 100, 200 mg/day); would have very little effect. It is filed as in vivo, human.
Text: as §1

In data set [12] the test system is pain. To be noted: relative to tramadol; cited from earlier work.
The subject of data set [13] is postherpetic neuralgia. To be noted: oral; cited from earlier work.
Data set [14] deals with painful diabetic neuropathy. To be noted: oral; cited from earlier work.
The test system of a further data set is central poststroke pain. To be noted: 10 of 15 patients; cited from earlier work.
The conditions of data set [15]: rats, i.v. administration; cited from earlier work.
Data set [16] deals with a or β adrenergic, muscarinic, histaminergic, and dopaminergic receptors. To be noted: cited from earlier work.
The test system of a further data set is uptake of dopamine. To be noted: cited from earlier work.
For data set [17] the following is noted: cited from earlier work. This is another data set of the same source.
For data set [18] the following is noted: fibromyalgia trials, cited from earlier work.
The conditions of data set [19]: diabetic peripheral neuropathy trials; cited from earlier work.
For another data set, the system named is post-operative pain. To be noted: third molar surgery; cited from earlier work.

Structures can show the parent of a compound that is named as a salt. Where two headings read alike, the source gives them in different places.

The bioavailability is dose-corrected exposure relative to a reference, in per cent. What is called half-life is the time in which the quantity being followed falls by half. As to `COc1cccc(C2(O)CCCCC2CN(C)C)c1` (racemic) [tramadol, (+/−)-trans (RR,SS)-2-[(di-methylamino)methyl]-1-(3-methoxyphenyl)cyclohexanol], in data set [1], the reduction in pain is listed as 30-40%. The “accumulation during multiple dose treatment” value in data set [2] (multiple dose treatment with tramadol) is listed as “approximately 2 fold”. In data set [2] (oral administration), the bioavailability is reported as 68% and the “time to peak serum concentrations” value was no more than 2 h. For the same molecule, in data set [2] (single oral dose of 100 mg tramadol), the half-life is 5.1 h. Also, the “duration of the analgesic effect” value in the data set on pain [3] was “about 6 hours”. Further, the “affinity for opiate receptors, fold less than codeine” value at μ-opiate receptor (relative to codeine) was 10 fold. For the same molecule, the “affinity for opiate receptors, fold less than d-propoxyphene” value on μ-opiate receptor (relative to d-propoxyphene) is 100 fold. The “affinity for opiate receptors relative to dextromethorphan” value on μ-opiate receptor (relative to dextromethorphan) was “equivalent”. In addition, the “affinity for opiate receptors, fold less than morphine” value on μ-opiate receptor (relative to morphine) is listed as 6,000 fold.

For orientation: IC50 means the point on the concentration scale where inhibition reaches its midpoint. Regarding `C[C@@H]1CCC[C@](CN)(CC(=O)O)C1` [(1R,3R)3-MeGBP], the IC50 in data set [4] was greater than 10000 nM. The “reversal of neuropathy-induced allodynia” value in data set [5] is “ineffective”.

On to `C[C@@H]1CCC[C@@](CN)(CC(=O)O)C1` [(1S,3R)3-MeGBP], for which, in data set [4], the 50% inhibitory concentration (IC50) was 42 nM. Further, the “reversal of neuropathy-induced allodynia” value in [5] is recorded as “effectively reversed”.

On to `NCC1(CC(=O)O)CCCCC1` [Gabapentin], for which the “Pain Relief (percent of reduction in pain) Diabetic Neuropathy” value in the data set with Diabetic Neuropathy [6] was less than 50%. For the same molecule, the “Pain Relief (percent of reduction in pain) Fibromyalgia” value in the data set on Fibromyalgia [7] is on record as less than 50%. In data set [8], the “steady-state predose (Cmin) concentration in cerebrospinal fluid as share of plasma concentration” value is reported as “approximately 20%”.

As for `O=S(=O)([O-])[O-].[Mg+2]` [Magnesium (present as magnesium sulfate)], in the data set on Diabetic Neuropathy [9], the “Pain Relief (percent of reduction in pain) Diabetic Neuropathy” value is reported as less than 10%. Besides, in the data set with postherpetic neuralgia [10] (30 mg kg-1 i.v., at 20 and 30 min (P=0.016), not at 10 min), the “pain scores compared with placebo” value is recorded as “significantly lower”. For the same molecule, the “safety, tolerability and efficacy” value with postherpetic neuralgia [10] (i.v., postherpetic neuralgia) was “safe, well-tolerated and effective”. For the same molecule, the “Pain Relief (percent of reduction in pain) Fibromyalgia” value in the data set on Fibromyalgia [11] is less than 10%.

As for `CN(C)C[C@H]1CCCC[C@]1(O)c1cccc(O)c1` [O-desmethyltramadol (M1), O-desmethyltramadol], in the data set on pain [12], the “analgesic potency relative to parent drug” value is reported as “at least twice the analgesic potency of the parent drug”.

On to `COc1cccc(C2(O)CCCCC2CN(C)C)c1` (stereo not drawn) [Tramadol Hydrochloride], for which the “Pain Relief (percent of reduction in pain) Diabetic Neuropathy” value in the data set on Diabetic Neuropathy [6] was less than 35%; in the data set with Diabetic Neuropathy [9], less than 10%. Moreover, the “Pain Relief (percent of reduction in pain) Fibromyalgia” value is less than 30% with Fibromyalgia [7] and less than 10% in the data set with Fibromyalgia [11].

For `CN(C)CCC=C1c2ccccc2CCc2ccccc21` [amitriptyline], the “share of patients with good or moderate response” value in the data set on postherpetic neuralgia [13] was “about two-thirds”; in data set [14], “three-quarters”. In the data set with central poststroke pain, the “patients with superior relief compared with placebo” value was 67%.

On to `COc1cc(CNC(=O)CCCCC=CC(C)C)ccc1O` [capsaicin, 8-methyl-N-vanillyl-6-nonenamide], for which the “time to distribution to brain, spinal cord, liver and blood” value in data set [15] was no more than 20 min.

`CCN(CC)C(=O)C1(c2ccccc2)CC1CN.Cl` (stereo not drawn) [milnacipran, 1-phenyl-1-diethyl-aminocarbonyl-2-aminomethyl-cyclopropane (Z) hydrochloride]: the affinity for receptors result in data set [16] is “no affinity”. Besides, in the data set on uptake of dopamine, the “effect on uptake of dopamine” value is listed as “does not affect”. In addition, in data set [17] (100 mg/day twice daily), the “adverse event: constipation” value is reported as 10% and the “adverse event: headache” value is 9%. Also, in data set [17] (200 mg/day twice daily), the “adverse event: abdominal pain” value is 7%; the “adverse event: headache” value was 8%; the “adverse event: nausea and vomiting” value is given as 7%.

With `CC(C)C[C@H](CN)CC(=O)O` [pregabalin], the “patients discontinued prematurely due to adverse reactions” value in data set [18] (150-600 mg/day) was 19%. In addition, the “withdrawal due to fatigue, headache, balance disorder, and weight increased (each)” value in data set [18] is recorded as “approximately 1%”. In addition, in data set [19], the “patients discontinued prematurely due to adverse reactions” value is recorded as 9%; the “withdrawal due to asthenia, confusion, and peripheral edema (each)” value was “approximately 1%”.

Take `N[C@@H](Cc1c[nH]c2ccccc12)C(=O)O` [tryptophan]: the “effect on post-operative pain or consumption of other analgesics” value with post-operative pain was “no effect”.

The values above are taken from patent publication US20130189354A1, “Novel Pharmaceutical Compositions for Treating Chronic Pain and Pain Associated with Neuropathy” (priority 2010, published 2013).
